Source: US5869658A, “Photochromic indeno-fused naptho[2,1-b]pyrans” (PPG Industries, Inc., priority 1997, dated 1999)

Columns and labels:
[1] = Lambda max of photochromic test squares by UV-Visible spectrophotometer; type: physicochemical; design: unit not given here; conditions: Varian Cary 3; for (λ) max (VIS): activated (colored) form in polymer test square, visible spectrum wavelength of maximum absorption; for (λ) max (UV): photochromic compound in polymer test square, ultraviolet wavelength closest to the visible spectrum
Method: (§1) Testing was done with the photochromic compounds described in Examples 1-5 and 7-9 in the following manner. A quantity of photochromic compound calculated to yield a 1.5×10^-3 molal solution was added to a flask containing 50 grams of a monomer blend of 4 parts ethoxylated bisphenol A dimethacrylate (BPA 2EO DMA), 1 part poly(ethylene glycol) 600 dimethacrylate, and 0.033 weight percent 2,2'-azobis(2-methyl propionitrile) (AIBN). The photochromic compound was dissolved into the monomer blend by stirring and gentle heating. After a clear solution was obtained, it was poured into a flat sheet mold having the interior dimensions of 2.2 mm×6 inches (15.24 cm)×6 inches (15.24 cm). The mold was sealed and placed in a horizontal air flow, programmable oven programmed to increase the temperature from 40° C. to 95° C. over a 5 hour interval, hold the temperature at 95° C. for 3 hours and then lower it to 60° C. for at least 2 hours. After the mold was opened, the polymer sheet was cut using a diamond blade saw into 2 inch (5.1 centimeters) test squares.
(§2) The Δ OD/Min, which represents the sensitivity of the photochromic compound's response to UV light, was measured over the first five (5) seconds of UV exposure, then expressed on a per minute basis. The saturation optical density (Δ OD@ Sat) was taken under identical conditions as the Δ OD/Min, except UV exposure was continued for 20 minutes. The lambda max (Vis) is the wavelength in the visible spectrum at which the maximum absorption of the activated (colored) form of the photochromic compound in a test square occurs. The lambda max (Vis) wavelength was determined by testing the photochromic test square polymerizates of Part A in a Varian Cary 3 UV-Visible spectrophotometer. The lambda (λ) max (UV) is the wavelength in the ultraviolet range closest to the visible spectrum at which the absorption of the photochromic compound occurs. This absorption was also determined with the same spectrophotometer. The bleach rate (T 1/2) is the time interval in seconds for the absorbance of the activated form of the photochromic compound in the test squares to reach one half the highest absorbance at room temperature (75° F., 23.90° C.) after removal of the source of activating light.

[2] = Photochromic response of test squares on an optical bench (ΔOD/Min, ΔOD at saturation, bleach rate); type: physicochemical; conditions: for ΔOD @ saturation: UV exposure continued for 20 minutes; for ΔOD @ saturation / ΔOD/MIN sensitivity: 75° F., 1.5×10^-3 molal in polymer; for ΔOD/MIN sensitivity: first five seconds of UV exposure, expressed per minute; for Bleach T 1/2: time to one half the highest absorbance at room temperature (75° F.) after removal of activating light
Method: as §1
The photochromic test squares prepared in Part A were tested for photochromic response on an optical bench. Prior to testing on the optical bench, the photochromic test squares were exposed to 365 nanometer ultraviolet light for about 15 minutes to activate the photochromic compounds and then placed in a 76° C. oven for about 15 minutes to bleach or inactivate the photochromic compounds. The test squares were then cooled to room temperature, exposed to fluorescent room lighting for at least 2 hours and then kept covered for at least 2 hours prior to testing on an optical bench maintained at 75° F. (23.90° C.). The bench was fitted with a 150 watt Xenon arc lamp, a remote controlled shutter, a copper sulfate bath acting as a heat sink for the arc lamp, a Schott WG-320 nm cut-off filter which removes short wavelength radiation; neutral density filter(s) and a sample holder in which the square to be tested was inserted. A collimated beam of light from a tungsten lamp was passed through the square at a small angle (approximately 30°) normal to the square. After passing through the square, the light from the tungsten lamp was directed to a detector through Spectral Energy Corp. GM-200 monochromator set at the previously determined visible lambda max of the photochromic compound being measured. The output signals from the detector were processed by a radiometer.
Change in optical density (ΔOD) was determined by inserting a test square in the bleached state into the sample holder, adjusting the transmittance scale to 100% opening the shutter from the Xenon lamp to provide ultraviolet radiation to change the test square from the bleached state to an activated (i.e., darkened) state, measuring the transmittance in the activated state, and calculating the change in optical density according to the formula: ΔOD=log(100/%Ta), where %Ta is the percent transmittance in the activated state and the logarithm is to the base 10.
as §2, with “The bleach rate (T 1/2) is the time interval in seconds for the absorbance of the activated form of the photochromic compound in the test squares to reach one half the highest absorbance at room temperature (75° F., 23.90° C.) after removal of the source of activating light.” left out

Row | SMILES | (λ) max (VIS) [1] | (λ) max (UV) [1] | ΔOD @ saturation [2] | ΔOD/MIN sensitivity [2] | Bleach T 1/2 [2]
1 | COc1ccc2c3c(c4c(c2c1)C=CC(c1ccccc1)(c1ccccc1)O4)Cc1ccccc1-3 [Example 1, 6-methoxy-2,2-diphenyl-2,13-dihydro-indeno[1'2':4,3]naphtho[2,1-b]pyran] | 437 | 366 | 0.38 | 0.52 ΔOD/MIN | 42 s
2 | CCCCC1(O)c2ccccc2-c2c1c1c(c3cc(OC)c(OC)cc23)C=CC(c2ccccc2)(c2ccccc2)O1 (stereo not shown) [Example 7, 6,7-dimethoxy-2,2-diphenyl-13-hydroxy-13-butyl-2,13-dihydro-indeno[1',2':4,3]naphtho[2,1-b]pyran] | 445 | 356 | 0.23 | 0.41 ΔOD/MIN | 38 s
3 | COc1ccc(C2(c3ccccc3F)C=Cc3c(c4c(c5cc(OC)c(OC)cc35)-c3ccccc3C4)O2)cc1 (stereo not shown) [Example 3, 6,7-dimethoxy-2-(2-fluorophenyl)-2-(4-methoxyphenyl)-2,13-dihydro-indeno[1',2':4,3]naphtho[2,1-b]pyran] | 464 | 385 | 1.22 | 0.48 ΔOD/MIN | 227 s
4 | COc1cc2c3c(c4c(c2cc1OC)-c1ccccc1C4(C)C)OC(c1ccccc1)(c1ccccc1)C=C3 [Example 5, 6,7-dimethoxy-2,2-diphenyl-13,13-dimethyl-2,13-dihydro-indeno[1',2':4,3]naphtho[2,1-b]pyran] | 446 | 358 | 0.37 | 0.39 ΔOD/MIN | 58 s

Now from value to compound:

Row | (λ) max (VIS) [1] | (λ) max (UV) [1] | ΔOD @ saturation [2] | ΔOD/MIN sensitivity [2] | Bleach T 1/2 [2] | SMILES
5 | 469 | 359 | 0.17 | 0.28 ΔOD/MIN | 31 s | COc1cc2c3c(c4c(c2cc1OC)-c1ccccc1C4O)OC(c1ccccc1)(c1ccccc1)C=C3 (stereo not drawn) [Example 9, 6,7-dimethoxy-2,2-diphenyl-13-hydroxy-2,13-dihydro-indeno[1',2':4,3]naphtho[2,l-b]pyran]
6 | 459 | 361 | 0.25 | 0.41 ΔOD/MIN | 35 s | COc1cc2c3c(c4c(c2cc1OC)-c1ccccc1C4(C)O)OC(c1ccccc1)(c1ccccc1)C=C3 (stereo not shown) [Example 8, 6,7-dimethoxy-2,2-diphenyl-13-hydroxy-13-methyl-2,13-dihydro-indeno[1',2':4,3]naphtho[2,1-b]pyran]
7 | 443 | 387 | 0.44 | 0.48 ΔOD/MIN | 51 s | COc1cc2c3c(c4c(c2cc1OC)-c1ccccc1C4)OC(c1ccccc1)(c1ccccc1)C=C3 [Example 2, 6,7-dimethoxy-2,2-diphenyl-2,13-dihydro-indeno[1'2':4,3]naphtho[2,1-b]pyran]
8 | 442 | 356 | 0.38 | 0.43 ΔOD/MIN | 62 s | COc1cc2c3c(c4c(c2cc1OC)-c1ccccc1C4C)OC(c1ccccc1)(c1ccccc1)C=C3 (stereo not shown) [Example 4, 6,7-dimethoxy-2,2-diphenyl-13-methyl-2,13-dihydro-indeno[1',2':4,3]naphtho[2,1-b]pyran]
